# Reference: patent US10766882B2, “1,2-naphthoquinone based derivative and method of preparing the same” (YUNGJIN PHARM. CO., LTD., priority 2013, dated 2020)
# Columns and labels:
# NQO1 protein = NQO1 protein (Homo sapiens, UniProt P15559); assay: NQO1 activity measurement (cytochrome C reduction); assay type: biochemical; details: 5 ng NQO1 protein, 200 μM NADH, 77 μM cytochrome C, 37° C., absorbance 550 nm for 10 minutes
# Cells = assay: Measurement of lactate change amount within cells; assay type: cell-based; details: PCA extract of cells, lactate measured from supernatant (Megazyme, K-LATE)
# Method: Cells were treated with 400 μl of 6% PCA, and then collected and extracted. Centrifugation (13,000 rpm, 10 min) was performed. A precipitate was dried using a Speed-Vac and then a weight of dried precipitate was measured. A supernatant was neutralized using 400 μl of 1 M KOH and a final volume thereof was adjusted to 1 ml using 0.33 M KH2PO4/K2HPO4, pH 7.5. Centrifugation (13,000 rpm, 10 min) was performed and the amount of lactate was measured from a supernatant (Megazyme, K-LATE).
# C57BL/6J Lep ob/ob mice = assay: Weight loss effects in obese mice (ob/ob); assay type: in vivo; details: 100 mg/kg oral, vs 0.1% SLS controls
# Method: 10 week-old C57BL/6J Lep ob/ob mice having genetic obesity characteristics available from ORIENTBIO were prepared. Two mice were raised in each polycarbonate breeding cage (200 W×260 L×130H (mm), Three-shine) in which temperature was 20 to 24° C., relative humidity was 35 to 65%, illuminance was 150 to 300 lux, night and day were 12 hours, and exhaust was performed at 10 to 15 air changes per hour. As a feed, low fat diet (11.9 kcal % fat, 5053, Labdiet) manufactured by ORIENTBIO was used. The feed was contained in a feeder and free intake was allowed. As drinking water, water, which was contained in a 250 mL polycarbonate based bottle, purified through a filter and a sterilizer was used and free intake was allowed.
# The compound according to Example 1 synthesized in the present invention was orally administered to three C57BL/6J Lep ob/ob mice in amounts of 40 mg/kg, 80 mg/kg, and 120 mg/kg, respectively, once every day for two weeks. For administration, a disposable syringe fitted with a sonde for oral administration was used and 10 ml/kg of the compound was orally administered into the stomach. As controls, three C57BL/6J Lep ob/ob mice were administered 0.1% sodium lauryl sulfate (SLS) in an amount of 120 mg/kg in the same manner as described above. After administration, a time-dependent weight increase ratio, weight change, and intake amount were measured and results are illustrated in FIG. 1 below.
# Weights of the experimental animals were measured immediately before administration of a test material and seven times a week from an administration initiation day to a test termination day. Increased total weights were calculated by subtracting weights measured on an experiment initiation day from weights measured one day before an experiment termination day. Food intake amounts were calculated by measuring feed supply amounts and remaining amounts twice a week from an initiation day of test material administration to a test termination day for each individual. […]
# (§1) Experiments were performed under the same conditions as in Experimental Example 3-1 except that 15 week-old C57BL/6J Lep ob/ob mice having genetic obesity characteristics available from ORIENTBIO were prepared, the compounds according to Examples 5 and 6 were administered to three C57BL/6J Lep ob/ob mice in an amount of 150 mg/kg, 150 mg/kg of 0.1% SLS was administered to each of three C57BL/6J Lep ob/ob mice as controls, and experiments were performed for a total of one week. Weight increase ratios, weight change, and intake amounts depending on administration time were measured and results are illustrated in FIG. 5 below.
# as §1, with “that 10” for “that 15”, “Examples 8, 9,” for “Examples 5”, “and 12” for “and 6”, “FIG. 6” for “FIG. 5”
# Experiments were performed under the same conditions as in Experimental Example 3-1 except that 6 week-old C57BL/6J Lep ob/ob mice having genetic obesity characteristics available from ORIENTBIO were prepared, the compounds according to Examples 17, 18, 22, and 23 were administered to three C57BL/6J Lep ob/ob mice in an amount of 100 mg/kg, 100 mg/kg of 0.1% SLS was administered to each of three C57BL/6J Lep ob/ob mice as controls, and experiments were performed for a total of one week. Weight increase ratios, weight change, and intake amounts depending on administration time were measured and results are illustrated in FIG. 10 below. […]
# [1] = Exp. Ex. 3-12, FIG. 15: 6 week-old ob/ob mice, two weeks
# [2] = Exp. Ex. 3-10, FIG. 13: 6 week-old ob/ob mice, two weeks
# [3] = Exp. Ex. 3-11, FIG. 14: 6.5 week-old ob/ob mice, one week
# [4] = Exp. Ex. 3-13, FIG. 16: 6 week-old ob/ob mice, one week
# NQO1 protein, sequence (P15559 whole entry, species assumed): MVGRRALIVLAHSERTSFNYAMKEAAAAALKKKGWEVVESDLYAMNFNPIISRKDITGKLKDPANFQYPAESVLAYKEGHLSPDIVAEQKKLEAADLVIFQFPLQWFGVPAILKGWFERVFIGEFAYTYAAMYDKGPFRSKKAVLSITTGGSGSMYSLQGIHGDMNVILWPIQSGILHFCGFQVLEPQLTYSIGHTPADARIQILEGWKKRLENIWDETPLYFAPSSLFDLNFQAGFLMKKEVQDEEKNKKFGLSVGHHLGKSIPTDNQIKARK
SMILES,"NQO1 activity (5 μM, [nmol cytochrome C reduced/min/μg protein]) (NQO1 protein)",Lactate change amount within cells (nmol/mg cell) (Cells),intake amount (C57BL/6J Lep ob/ob mice; [1]),weight change (C57BL/6J Lep ob/ob mice; [1]),weight increase ratio (C57BL/6J Lep ob/ob mice; [1]),intake amount (C57BL/6J Lep ob/ob mice; [2]),weight change (C57BL/6J Lep ob/ob mice; [2]),weight increase ratio (C57BL/6J Lep ob/ob mice; [2]),intake amount (C57BL/6J Lep ob/ob mice; [3]),weight change (C57BL/6J Lep ob/ob mice; [3]),weight increase ratio (C57BL/6J Lep ob/ob mice; [3]),intake amount (C57BL/6J Lep ob/ob mice; [4]),weight change (C57BL/6J Lep ob/ob mice; [4]),weight increase ratio (C57BL/6J Lep ob/ob mice; [4])
CC(C)c1nc2c(n1Cc1ccc(F)cc1)C(=O)C(=O)c1ccccc1-2 [Example 33],152.5 nmol cytochrome C reduced/min/μg protein,4.7,significantly decreased in some sections,significantly decreased in some sections,significantly decreased in some sections,–,–,–,–,–,–,–,–,–
CC(C)c1nc2c(n1C)C(=O)C(=O)c1ccccc1-2 [Example 35],190.3 nmol cytochrome C reduced/min/μg protein,8.1,significantly decreased in some sections,significantly decreased in some sections,significantly decreased in some sections,significantly decreased in some sections,significantly decreased in some sections,significantly decreased in some sections,–,–,–,–,–,–
"CCc1nc2c(n1C)C(=O)C(=O)c1ccccc1-2 [Example 38, 2-ethyl-3-methyl-3H-naphtho[2,1-d]imidazole-4,5-dione]",142.1 nmol cytochrome C reduced/min/μg protein,5.2,–,–,–,–,–,–,significantly decreased in some sections,significantly decreased in some sections,significantly decreased in some sections,–,–,–
"CCc1nc2c(n1C)C(=O)C(=O)c1cc(F)ccc1-2 [Example 41, 2-ethyl-7-fluoro-3-methyl-3H-naphtho[2,1-d]imidazole-4,5-dione]",148.4 nmol cytochrome C reduced/min/μg protein,7.2,–,–,–,–,–,–,–,–,–,significantly decreased in some sections,significantly decreased in some sections,significantly decreased in some sections
"CCc1nc2c([nH]1)C(=O)C(=O)c1cc(Cl)ccc1-2 [Example 45, 7-chloro-2-ethyl-3H-naphtho[2,1-d]imidazole-4,5-dione]",188.6 nmol cytochrome C reduced/min/μg protein,5.7,–,–,–,–,–,–,–,–,–,significantly decreased in some sections,significantly decreased in some sections,significantly decreased in some sections
Cc1nc2c(n1C)C(=O)C(=O)c1ccccc1-2 [Example 96],21.4 nmol cytochrome C reduced/min/μg protein,5.7,–,–,–,–,–,–,significantly decreased in some sections,significantly decreased in some sections,significantly decreased in some sections,–,–,–
